Measured values reported in patent US6172110A, “Acylated betulin and dihydrobetulin derivatives, preparation thereof and use thereof” (The University of North Carolina at Chapel Hill, priority 1999, dated 2001).
Like-named read-outs stand apart in the source and are kept apart here.

Legend:
HIV-1 = conditions: H9 lymphocyte cells, Fujioka et al. 1994, cited from earlier work
HIV-1 (IIIB isolate) = experiment: HIV-1 inhibition (p24 antigen ELISA) in infected H9 lymphocytes; format: cell-based; conditions: Human immunodeficiency virus 1, IIIB, Lymphocyte, 96 h; H9 lymphocytes; p24 ELISA Day 4; average of at least two experiments; read-out: Anti-HIV Activity EC50
Method: (§1) Aliquot of this cell line were only used in experiments when in log-phase growth. Test samples were first dissolved in dimethyl sulfoxide. The following final drug concentrations were routinely used for screening: 100, 20, 4 and 0.8 μg/ml. For active agents, additional dilutions were prepared for subsequent testing so that an accurate EC50 value (defined below) could be achieved. […] The appropriate amount of virus for a multiplicity of infection (moi) between 0.1 and 0.01 Infectious Units/cell was added to the first aliquot of H9 cells. The other aliquot only received culture medium, and these mock-infected cells were used for toxicity determinations (IC50, defined below). After a 4 h incubation at 37° C. and 5% CO2, both cell populations were washed three times with fresh medium and then added to the appropriate wells of a 24 well-plate containing the various concentrations of the test drug or culture medium (positive infected control/negative drug control). In addition, AZT was also assayed during each experiment as a positive drug control. The plates were incubated at 37° C. and 5% CO2 for 4 days. Cell-free supernatants were collected on Day 4 for use in a p24 antigen ELISA assay. P24 antigen is a core protein of HIV and therefore is an indirect measure of virus present in the supernatants. Toxicity was determined by performing cell counts by a Coulter Counter on the mock-infected H9 cells which had either received culture medium (no toxicity), test sample, or AZT.
Compounds of the present invention were assayed for anti-HIV activity according to the following assay procedures. […] The cell lines were used in experiments only when in the logarithmic phase of growth, whereas uninfected peripheral blood mononuclear cells (PBMCs) were first stimulated with PHA (1 μg/mL) for three days. […] The cell lines and PBMCs were washed thoroughly to remove unadsorbed virions and resuspended at 4×10^5 cells/ml in complete medium or complete medium with 10% v/v interleukin 2 (IL-2) , respectively. One ml. aliquots were placed into wells of 24-well culture plates containing an equal volume of test compounds (diluted in the appropriate culture medium). The toxicity of each compound was assessed by determining the number of compound-exposed uninfected cells that remained after four days at 37° C. and 5% CO2. A p24 antigen ELISA assay was used to determine the level of virus released in the medium of the HIV-infected cultures. The p24 antigen assay used a HIV-1 anti-p24 specific monoclonal antibody as the capture antibody coated onto 96-well plates. […] P24 in the culture medium was quantitated against a standard curve containing known amounts of p24. The effective (EC50) and inhibitory (IC50) concentrations for anti-HIV activity and cytotoxicity, respectively, were determined.

[1] = Cytotoxicity: cell counts of mock-infected H9 cells; format: cell-based; conditions: human; toxic to 50% of mock-infected H9 cells; 4 days; average of at least two experiments; read-out: Cytotoxicity IC50
Method: as §1, with “The biological evaluation of HIV-1 inhibition was carried out according to established protocols, (Kashiwada, Y., et al., J Med Chem. 39:1016-1017 (1996); Hashimoto, F., et al., Bioorg. & Med Chem. 5:2133-2143 (1997)). The T cell line, H9, was maintained in continuous culture with complete medium (RPMI 1640 with 10% fetal calf serum supplemented with L-glutamine at 5% CO2 and 37° C.). Aliquot” for “Aliquot”, “achieved. As the test samples were being prepared, an aliquot of the H9 cell line was infected with HIV-1 (IIIB isolate) while another aliquot was mock-infected with complete medium.” for “achieved.”
Compounds of the present invention were assayed for anti-HIV activity according to the following assay procedures. The T cell line, H9, and the promonocytic cell line, U937, were maintained separately in continuous culture with complete medium (RPMI 1640 with 10% fetal calf serum) at 5% CO2 and 37° C. The cell lines were used in experiments only when in the logarithmic phase of growth, whereas uninfected peripheral blood mononuclear cells (PBMCs) were first stimulated with PHA (1 μg/mL) for three days. All cell targets were incubated with HIV-1 (IIIB isolate, TCID50 10^4 IU/ml, at a multiplicity of infection of […] IU/cell) for one hour at 37° C. and 5% CO2. The cell lines and PBMCs were washed thoroughly to remove unadsorbed virions and resuspended at 4×10^5 cells/ml in complete medium or complete medium with 10% v/v interleukin 2 (IL-2) , respectively. One ml. aliquots were placed into wells of 24-well culture plates containing an equal volume of test compounds (diluted in the appropriate culture medium). The toxicity of each compound was assessed by determining the number of compound-exposed uninfected cells that remained after four days at 37° C. and 5% CO2. A p24 antigen ELISA assay was used to determine the level of virus released in the medium of the HIV-infected cultures. The p24 antigen assay used a HIV-1 anti-p24 specific monoclonal antibody as the capture antibody coated onto 96-well plates. Following a sample incubation period, rabbit serum containing antibodies for HIV-1 p24 was used to tag any p24 captured onto the microtiterwell surface. Peroxidase conjugated goat anti-rabbit serum was then used to tag HIV-1 p24 specific rabbit antibodies that had complexed with captured p24. […] The cutoff for the p24 ELISA assay was 12.5 pg/ml. P24 in the culture medium was quantitated against a standard curve containing known amounts of p24. […]

[2] = read-out: EC50, inhibitory activity against HIV-1 replication

Q: Which T.I. (HIV-1) does the source give for `CC(=O)[C@@H]1CC[C@]2(C(=O)O)CC[C@]3(C)[C@H](CC[C@@H]4[C@@]5(C)CC[C@H](O)C(C)(C)[C@@H]5CC[C@]43C)[C@@H]12` [platanic acid] here?
A: 14

Q: And the EC50 (HIV-1; [2])?
A: 6500 nM

Q: What does the source list for `CC(C)[C@@H]1CC[C@]2(C(=O)O)CC[C@]3(C)[C@H](CC[C@@H]4[C@@]5(C)CC[C@H](O)C(C)(C)[C@@H]5CC[C@]43C)[C@@H]12` [dihydrobetulinic acid]?
A: T.I. (HIV-1): 14; EC50 (HIV-1; read-out: EC50, anti-HIV activity (unit inferred)): 900 nM

Q: With `C=C(C)[C@@H]1CC[C@]2(C(=O)O)CC[C@]3(C)[C@H](CC[C@@H]4[C@@]5(C)CC[C@H](O)C(C)(C)[C@@H]5CC[C@]43C)[C@@H]12` [Compound 1, betulinic acid, reference compound] as the compound, how does the EC50 (HIV-1 (IIIB isolate)) read?
A: 1400 nM

Q: And the CC50 at 96 h [1]?
A: 13000 nM

Q: And the EC50 (HIV-1; [2])?
A: 1400 nM
